This is an account of results in patent publication US5036077A, “1-(benzylpiperidino)propan-2-ol derivatives, their preparation, their use as antimicrobial agents and the products in which they are present” (Sanofi, priority 1987, dated 1991).

≈ marks a conversion by molar mass, not a printed value. Where two headings read alike, the source gives them in different places.

By MBC is commonly meant the lowest tested concentration that kills the bacteria rather than only halting them. Usually MFC stands for the lowest tested concentration that kills the fungus rather than only halting it.

Common to all, as to type: cell-based
In test [1] the test system is Streptococcus faecalis CNCM 5855. The experiment in a line: Minimum bactericidal concentration, 30 min contact, strain 2. Conditions: Enterococcus faecalis, CNCM5855, 0.5 h, read-out: MBC, strain 2. How it is done: (§1) A bacterial inoculum is brought into contact with different dilutions of the test product for a limited time of 30 minutes. When the contact time has ended, an aliquot of the bacterial suspension/product mixture is deposited on the surface of a gelose culture medium containing an agent for neutralizing the antibacterial activity of the product. The bactericidal concentration chosen is the minimum concentration of the product which is necessary to prevent bacterial growth. This concentration is expressed in μg/ml.
2 - Streptococcus faecalis CNCM 5855;
(§2) The strains are maintained on Tryptic Soy Agar (TSA) marketed by Difco.
(§3) After 24 hours of culture at 37° C., the microbial growth is harvested with the aid of glass beads and 10 ml of diluent containing 1 g of tryptone and 8.5 g of sodium chloride in 1000 ml of distilled water. The suspension formed is shaken and the percentage transmission of light at 620 nm is measured on a spectrophotometer:
(§4) The bacterial inoculum corresponds to a 1/20 dilution of this bacterial suspension.
(§5) Plates containing cups receive different dilutions of the test product. These dilutions of the test product are brought into contact with the different bacterial suspensions using a multiple-site inoculator. After a contact time of 30 minutes, aliquots are transferred by means of this inoculator to the surface of a gelose medium (TSA) placed in petri dishes and containing an agent for neutralizing the activity, namely 20 g of lubrol W, 2.5 g of Tween 80, 2.5 g of sodium thiosulfate and 1% of egg yolk in 1000 ml of TSA (Difco). A reference for the efficacy of the neutralizing agent is prepared for each test product by depositing an aliquot of the dilution of the test product on the surface of the culture medium. After drying, the corresponding inoculum is deposited in the same place. A reference inoculum is prepared on a gelose medium with and without neutralizing agent. The results are read off after 48 hours of incubation at 37° C.
(§6) They indicate the minimum bactericidal concentrations (MBC) for strains 1, 2, 3 and 4 and the minimum fungicidal concentrations (MFC) for strain 5.

The test system of test [2] is Candida albicans CNCM 1180. The experiment in a line: Minimum fungicidal concentration, strain 5. Conditions: CNCM1180, 0.5 h, read-out: MFC, strain 5. How it is done:
as §1, §5
(§7) The antifungal activity of the products according to the invention was also determined using the method described above. The representative strain of yeast selected for the study was Candida albicans CNCM 1180 (strain 5).
This is maintained on a gelose medium of Sabouraud Dextrose Agar, marketed by Difco. The technique is identical to that described for studying the antibacterial activity. After 48 hours of culture at 37° C., the microbial growth is harvested with the aid of glass beads and 5 ml of diluent containing 1 g of tryptone and 8.5 g of sodium chloride in 1000 ml of distilled water; a further 5 ml of the diluent are then added. In a spectrophotometer, this suspension gives a 2 to 3% transmission of light at 620 nm. The inoculum corresponds to a 1/10 dilution of this microbial suspension. A 1/100 dilution of this suspension, observed between a microscope slide and cover slip through a lens of magnification 40, should show 10 cells per field, which corresponds to 1 000 000 yeasts per ml.
as §6

Test [3] concerns Escherichia coli CNCM 54127. The experiment in a line: Minimum bactericidal concentration, 30 min contact, strain 4. Conditions: CNCM54127, 0.5 h, read-out: MBC, strain 4. On the procedure:
as §1
4 - Escherichia coli CNCM 54127.
as §2, §3, §4, §5, §6

Test [4] relates to Pseudomonas aeruginosa CNCM A22. The test can be described thus: Minimum bactericidal concentration, 30 min contact, strain 3. Conditions: CNCMA22, 0.5 h, read-out: MBC, strain 3. How it is done: as §1
3 - Pseudomonas aeruginosa CNCM A22;
as §2, §3, §4, §5, §6

Test [5] concerns bacterial strains and fungal strain tested. The test can be described thus: Bactericidal and fungicidal activities on the strains tested (overall statement). The note with it: bacterial strains 1-4 and fungal strain 5. On the procedure:
The bactericidal and fungicidal activities of the products according to the invention were studied on different strains.
as §1, §5, §7
By way of comparison, 3-aryloxy-1-piperidinopropan-2-ol derivatives described in the literature, or similar to the compounds described, were prepared and the bactericidal and fungicidal activities of these compounds and of propranolol were measured on the same strains and under the same conditions as for the products according to the invention. The results are reported in Table II after those obtained with the products according to the invention.

Test [6] relates to Staphylococcus aureus CNCM 53154. The experiment in a line: Minimum bactericidal concentration, 30 min contact, strain 1. The note with it: CNCM53154, 0.5 h, read-out: MBC, strain 1. How it is done:
as §1
1 - Staphylococcus aureus CNCM 53154;
as §2, §3, §4, §5, §6

Setting [7] is: Streptococcus faecalis CNCM 5855, contact time 30 minutes, solubilizing agent given per product.
Where [8] appears, read: Candida albicans CNCM 1180, contact time 30 minutes, solubilizing agent given per product.
[9] abbreviates: Escherichia coli CNCM 54127, contact time 30 minutes, solubilizing agent given per product.
[10] abbreviates: Pseudomonas aeruginosa CNCM A22, contact time 30 minutes, solubilizing agent given per product.
The mark [11] stands for this setting: Staphylococcus aureus CNCM 53154, contact time 30 minutes, solubilizing agent (water, TEG or acetone) given per product.

In the case of `Cl.OC(CSc1ccc(Br)cc1)CN1CCCCC1` (centres unmarked) [Product C, 3-(4-bromophenylthio)-1-piperidinopropan-2-ol hydrochloride, reference compound], the minimum bactericidal concentration (MBC) in test [1] (setting [7]), in test [3] (setting [9]), in test [4] (setting [10]) and in test [6] (setting [11]) was more than 1000 µg/mL in each case. In addition, the MFC in test [2] (setting [8]) is 1000 µg/mL. For the same compound, the “antimicrobial activity (in words)” value in test [5] is given as “no antimicrobial activity”.

With `CC(C)NCC(O)COc1cccc2ccccc12` (centres unmarked) [Propranolol, propranolol, reference compound], the MBC in test [1] was 1000 µg/mL (≈ 3860 µM); in test [3] (Escherichia coli) it was 1000 µg/mL (≈ 3860 µM); in test [4] (Pseudomonas aeruginosa) it was 1000 µg/mL (≈ 3860 µM); in test [6] (Staphylococcus aureus), 5000 µg/mL (≈ 19300 µM). For the same compound, the minimal fungicidal concentration (MFC) in test [2] (Candida albicans) was found to be 5000 µg/mL (≈ 19300 µM). For the same compound, the “antimicrobial activity (in words)” value in test [5] is given as “no antimicrobial activity”.

On to `OC(CSc1ccc(Br)cc1)CN1CCC(Cc2ccc(Cl)cc2)CC1` (racemic) [SR 45076 A], for which the MBC in test [1] (setting [7]) is 10 µg/mL (≈ 22 µM); in test [3] (setting [9]), 10 µg/mL (≈ 22 µM); in test [4] (setting [10]), 50 µg/mL (≈ 110 µM); in test [6] (setting [11]) it was 50 µg/mL (≈ 110 µM). Moreover, in test [2] (setting [8]), the MFC is 50 µg/mL (≈ 110 µM).

Take `CC(C)(C)c1ccc(OCC(O)CN2CCC(Cc3ccccc3)CC2)cc1` (racemic) [SR 44648 A]: the minimal bactericidal concentration (MBC) in test [1] (setting [7]) is 200 µg/mL (≈ 524 µM); in test [3] (setting [9]), 50 µg/mL (≈ 131 µM); in test [4] (setting [10]) it was 50 µg/mL (≈ 131 µM); in test [6] (setting [11]) it was 200 µg/mL (≈ 524 µM). Moreover, the minimal fungicidal concentration (MFC) in test [2] (setting [8]) was 200 µg/mL (≈ 524 µM).

Consider `OC(COc1ccc(-c2ccccc2)cc1)CN1CCC(Cc2ccccc2)CC1` (racemic) [SR 44715 A], for which the minimum bactericidal concentration (MBC) in test [1] (setting [7]), in test [3] (setting [9]), in test [4] (setting [10]) and in test [6] (setting [11]) was 50 µg/mL (≈ 125 µM) each time. The MFC in test [2] (setting [8]) amounted to 200 µg/mL (≈ 498 µM).

With `OC(CSc1ccc(Cl)c(Cl)c1)CN1CCC(Cc2ccc(Cl)cc2)CC1` (racemic) [SR 45077 A], the minimal bactericidal concentration (MBC) in test [1] (setting [7]) came to 10 µg/mL (≈ 22.5 µM); in test [3] (setting [9]), 10 µg/mL (≈ 22.5 µM); in test [4] (setting [10]), 50 µg/mL (≈ 112 µM); in test [6] (setting [11]), 50 µg/mL (≈ 112 µM). Also, the MFC in test [2] (setting [8]) amounted to 50 µg/mL (≈ 112 µM).

With `Cl.OC(COc1ccccc1)CN1CCC(c2ccccc2)CC1` (centres unmarked) [Product B, 3-phenoxy-1-(4-phenylpiperidino)propan-2-ol hydrochloride, reference compound], the MBC in test [1] (setting [7]), in test [3] (setting [9]), in test [4] (setting [10]) and in test [6] (setting [11]) was more than 1000 µg/mL each time. The MFC in test [2] (setting [8]) was more than 1000 µg/mL. Also, the “antimicrobial activity (in words)” value in test [5] is reported as “no antimicrobial activity”.

For the compound `CC1CCN(CC(O)COc2ccc(Br)cc2)CC1.Cl` (centres unmarked) [Product A, 3-(4-bromophenoxy)-1-(4-methylpiperidino)propan-2-ol hydrochloride, reference compound], the MBC in test [1] (setting [7]) was 1000 µg/mL; in test [3] (setting [9]) it was 1000 µg/mL; in test [4] (setting [10]), 1000 µg/mL; in test [6] (setting [11]) it was more than 2000 µg/mL. Also, the MFC in test [2] (setting [8]) is 5000 µg/mL. The “antimicrobial activity (in words)” value in test [5] is given as “no antimicrobial activity”.
